Test results reported in PubChem BioAssay (NCI).
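Protocol summary: plate cells (96-well), add compound at 5 concentrations, incubate 48 h, interpolate endpoints linearly. Here, GI50 denotes the concentration required for 50% inhibition of growth. The concentration for full growth arrest is given as TGI.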

Columns and labels:
Assay in all cases: inhibition of tumour cell growth, NCI panel, 48 h
TK-10 renal = system: TK-10 renal
NCI-H226 lung = system: NCI-H226 lung
SNB-75 CNS = system: SNB-75 CNS
SR leukemia = system: SR leukemia
SK-MEL-28 melanoma = system: SK-MEL-28 melanoma
HT29 colon = system: HT29 colon
BT-549 breast = system: BT-549 breast
HCT-116 colon = system: HCT-116 colon
LOX IMVI melanoma = system: LOX IMVI melanoma
OVCAR-3 ovarian = system: OVCAR-3 ovarian
SF-295 CNS = system: SF-295 CNS
IGROV1 ovarian = system: IGROV1 ovarian
UACC-62 melanoma = system: UACC-62 melanoma
COLO 205 colon = system: COLO 205 colon
NCI-H23 lung = system: NCI-H23 lung
MDA-MB-468 breast = system: MDA-MB-468 breast
UO-31 renal = system: UO-31 renal
HS 578T breast = system: HS 578T breast
MDA-MB-231 breast = system: MDA-MB-231 breast
NCI/ADR-RES ovarian = system: NCI/ADR-RES ovarian
A549 NSCLC = system: A549 NSCLC
CCRF-CEM leukemia = system: CCRF-CEM leukemia
K-562 leukemia = system: K-562 leukemia
HCC-2998 colon = system: HCC-2998 colon
HL-60(TB) leukemia = system: HL-60(TB) leukemia
RXF 393 renal = system: RXF 393 renal
MALME-3M melanoma = system: MALME-3M melanoma
HOP-92 NSCLC = system: HOP-92 NSCLC
SK-MEL-5 melanoma = system: SK-MEL-5 melanoma
PC-3 prostate = system: PC-3 prostate
SNB-19 CNS = system: SNB-19 CNS
RPMI-8226 leukemia = system: RPMI-8226 leukemia
MOLT-4 leukemia = system: MOLT-4 leukemia
EKVX NSCLC = system: EKVX NSCLC
M14 melanoma = system: M14 melanoma
HCT-15 colon = system: HCT-15 colon
SK-OV-3 ovarian = system: SK-OV-3 ovarian
KM12 colon = system: KM12 colon
A498 renal = system: A498 renal
HOP-62 NSCLC = system: HOP-62 NSCLC
T-47D breast = system: T-47D breast
OVCAR-5 ovarian = system: OVCAR-5 ovarian
OVCAR-8 ovarian = system: OVCAR-8 ovarian
NCI-H522 lung = system: NCI-H522 lung
CAKI-1 renal = system: CAKI-1 renal
SN12C renal = system: SN12C renal
MDA-MB-435 = system: MDA-MB-435
SK-MEL-2 melanoma = system: SK-MEL-2 melanoma
ACHN renal = system: ACHN renal
DU-145 prostate = system: DU-145 prostate
OVCAR-4 ovarian = system: OVCAR-4 ovarian
MCF7 breast = system: MCF7 breast
786-0 renal = system: 786-0 renal
NCI-H460 lung = system: NCI-H460 lung
UACC-257 melanoma = system: UACC-257 melanoma
SF-268 CNS = system: SF-268 CNS
SF-539 CNS = system: SF-539 CNS
SW-620 colon = system: SW-620 colon
U251 CNS = system: U251 CNS

Question: Which results are given for COc1ccccc1NC(=O)N/N=C/c1c[nH]c2ccccc12?
Answer: GI50 (TK-10 renal): 4.73 µM; TGI (TK-10 renal): 23.8 µM; GI50 (NCI-H226 lung): 4.11 µM; TGI (NCI-H226 lung): 23 µM; GI50 (SNB-75 CNS): 3.43 µM; TGI (SNB-75 CNS): 20.9 µM; GI50 (SR leukemia): 0.215 µM; TGI (SR leukemia): 12.4 µM; GI50 (SK-MEL-28 melanoma): 1.57 µM; TGI (SK-MEL-28 melanoma): 17.6 µM; GI50 (HT29 colon): 0.427 µM; TGI (HT29 colon): 10.6 µM; GI50 (BT-549 breast): 0.194 µM; TGI (BT-549 breast): 4.69 µM; GI50 (HCT-116 colon): 0.405 µM; TGI (HCT-116 colon): 3.61 µM; GI50 (LOX IMVI melanoma): 0.803 µM; TGI (LOX IMVI melanoma): 14.9 µM; GI50 (OVCAR-3 ovarian): 0.451 µM; TGI (OVCAR-3 ovarian): 5.47 µM; GI50 (SF-295 CNS): 0.816 µM; TGI (SF-295 CNS): 5.9 µM; GI50 (IGROV1 ovarian): 1.66 µM; TGI (IGROV1 ovarian): 20.5 µM; GI50 (UACC-62 melanoma): 0.473 µM; TGI (UACC-62 melanoma): 12.5 µM; GI50 (COLO 205 colon): 0.766 µM; TGI (COLO 205 colon): 4.44 µM; GI50 (NCI-H23 lung): 1.45 µM; TGI (NCI-H23 lung): 10.8 µM; GI50 (MDA-MB-468 breast): 0.236 µM; TGI (MDA-MB-468 breast): 2.74 µM; GI50 (UO-31 renal): 3.28 µM; TGI (UO-31 renal): 18.4 µM; GI50 (HS 578T breast): 3.05 µM; TGI (HS 578T breast): 25.7 µM; GI50 (MDA-MB-231 breast): 0.824 µM; TGI (MDA-MB-231 breast): 12.6 µM; GI50 (NCI/ADR-RES ovarian): 0.299 µM; TGI (NCI/ADR-RES ovarian): 1.31 µM; GI50 (A549 NSCLC): 1.22 µM; TGI (A549 NSCLC): 18.2 µM; GI50 (CCRF-CEM leukemia): 0.379 µM; TGI (CCRF-CEM leukemia): 12.9 µM; GI50 (K-562 leukemia): 0.229 µM; TGI (K-562 leukemia): 16.4 µM; GI50 (HCC-2998 colon): 1.42 µM; TGI (HCC-2998 colon): 14.2 µM; GI50 (HL-60(TB) leukemia): 0.304 µM; TGI (HL-60(TB) leukemia): 3.51 µM; GI50 (RXF 393 renal): 1.66 µM; TGI (RXF 393 renal): 6.45 µM; GI50 (MALME-3M melanoma): 0.559 µM; TGI (MALME-3M melanoma): 16.9 µM; GI50 (HOP-92 NSCLC): 1.85 µM; TGI (HOP-92 NSCLC): 10.4 µM; GI50 (SK-MEL-5 melanoma): 1.04 µM; TGI (SK-MEL-5 melanoma): 5.52 µM; GI50 (PC-3 prostate): 1.6 µM; TGI (PC-3 prostate): 14.7 µM; GI50 (SNB-19 CNS): 2.58 µM; TGI (SNB-19 CNS): 16.1 µM; GI50 (RPMI-8226 leukemia): 1.39 µM; TGI (RPMI-8226 leukemia): 6.09 µM; GI50 (MOLT-4 leukemia): 0.381 µM; TGI (MOLT-4 leukemia): 11.9 µM; GI50 (EKVX NSCLC): 2.2 µM; TGI (EKVX NSCLC): 13.9 µM; GI50 (M14 melanoma): 0.365 µM; TGI (M14 melanoma): 10.8 µM; GI50 (HCT-15 colon): 0.348 µM; TGI (HCT-15 colon): 12 µM; GI50 (SK-OV-3 ovarian): 2.48 µM; TGI (SK-OV-3 ovarian): 15.4 µM; GI50 (KM12 colon): 0.574 µM; TGI (KM12 colon): 11 µM; GI50 (A498 renal): 10.1 µM; TGI (A498 renal): 22.4 µM; GI50 (HOP-62 NSCLC): 3.01 µM; TGI (HOP-62 NSCLC): 18.9 µM; GI50 (T-47D breast): 1.04 µM; TGI (T-47D breast): > 100 µM; GI50 (OVCAR-5 ovarian): 2.72 µM; TGI (OVCAR-5 ovarian): 15.5 µM; GI50 (OVCAR-8 ovarian): 2.12 µM; TGI (OVCAR-8 ovarian): 13.9 µM; GI50 (NCI-H522 lung): 0.177 µM; TGI (NCI-H522 lung): 0.428 µM; GI50 (CAKI-1 renal): 2.53 µM; TGI (CAKI-1 renal): 13.7 µM; GI50 (SN12C renal): 1.1 µM; TGI (SN12C renal): 12.1 µM; GI50 (MDA-MB-435): 0.226 µM; TGI (MDA-MB-435): 0.647 µM; GI50 (SK-MEL-2 melanoma): 0.67 µM; TGI (SK-MEL-2 melanoma): 4.92 µM; GI50 (ACHN renal): 3.13 µM; TGI (ACHN renal): 15.8 µM; GI50 (DU-145 prostate): 2.56 µM; TGI (DU-145 prostate): 12.4 µM; GI50 (OVCAR-4 ovarian): 4.34 µM; TGI (OVCAR-4 ovarian): 19.9 µM; GI50 (MCF7 breast): 0.423 µM; TGI (MCF7 breast): 12.3 µM; GI50 (786-0 renal): 1.23 µM; TGI (786-0 renal): 3.77 µM; GI50 (NCI-H460 lung): 0.961 µM; TGI (NCI-H460 lung): 12.6 µM; GI50 (UACC-257 melanoma): 10.7 µM; TGI (UACC-257 melanoma): 34.8 µM; GI50 (SF-268 CNS): 3.06 µM; TGI (SF-268 CNS): 20.6 µM; GI50 (SF-539 CNS): 0.704 µM; TGI (SF-539 CNS): 2.86 µM; GI50 (SW-620 colon): 0.479 µM; TGI (SW-620 colon): 18.5 µM; GI50 (U251 CNS): 1.45 µM; TGI (U251 CNS): 12.5 µM
